“Also recorded” adds a separate entry of the source.
Legend:
MCF10A ARID1A KO cells = experiment: cell survival screen with clinically applicable kinase inhibitors; format: cell-based; settings: MCF10A system, ARID1A KO vs WT, ratios of Z-scores
Source text: FIG. 2: Generation of ARID1A KO cells in (A) GES1, (B) MCF10A, (C) OVCAR3, (D) Ratios of Z-scores, showing hits from preliminary FDA approved kinase inhibitor screen.
ARID1A Knockout (KO) cell lines were generated using CRISPR-Cas9 gene editing in multiple cellular contexts where ARID1A is lost-Gastric (GES1), Breast (MCF10A), and Ovarian (OVCAR3) (FIG. 2 A-C).

[1] = tested on: GES1 ARID1A WT and KO cells; experiment: Cell titre blue assay in GES1 ARID1A WT and KO cells; format: cell-based; settings: GES1 ARID1A WT vs KO
Source text: (§1) This synthetic lethal interaction was validated using Volasertib in multiple isogenic ARID1A WT and KO cell lines, using cell proliferation and colony formation assays (FIG. 3 A-E).

[2] = tested on: MCF10A ARID1A WT and KO cells; experiment: Cell titre blue assay in MCF10A ARID1A WT and KO cells; format: cell-based; settings: MCF10A ARID1A WT vs KO
Source text: as §1

[3] = tested on: GES1 ARID1A-WT and KO cells; experiment: colony formation assay in GES1 ARID1A-WT and KO cells; format: cell-based; settings: GES1 ARID1A-WT vs KO
Source text: as §1

[4] = tested on: OVCAR3 ARID1A WT and KO cells; experiment: Cell proliferation assays in OVCAR3 cells; format: cell-based; settings: OVCAR3 ARID1A WT vs KO
Source text: as §1

[5] = tested on: OVCAR3-ARID1A KO xenografts; experiment: mouse xenograft experiments with OVCAR3-ARID1A WT or KO cells; format: in vivo; settings: Nude (SCID) mice, 15 mg/kg body weight once per week for 4 weeks
Protocol: Nude (SCID) mice received sub-cutaneous injections of OVCAR3-ARID1A WT or KO cells. Tumors were visible 10 days post injection, after which the animals were treated with Volasertib (15 mg/kg body weight) or vehicle once per week for 4 weeks. Body mass and tumor volumes were recorded twice per week. Mice were sacrificed at the end of 4 weeks of treatment and tumors were isolated and imaged, (B) Body mass measurements of mice measured twice per week, (C) Tumor volume measurements of mice measured twice per week, p<0.05, student's t-test, (D) Images of OVCAR3-ARID1A WT/KO tumors isolated from mice after sacrifice, (E) Dot plot of tumor area from D showing changes in tumor area in OVCAR3-ARID1A KO vs OVCAR3-ARID1A KO+volasertib treatment. Tumor area was calculated from the images in image J using the ruler to set scale and applying free hand tool to measure the tumor area.
as §1

[6] = tested on: GES1 ARID1A WT and KO cells; experiment: mitochondrial depolarization measured using JC-1; format: cell-based; settings: post treatment
Source text: (§2) HSC70 was used as loading control.

[7] = tested on: GES1 ARID1A-WT and KO cells; experiment: Annexin-V staining (apoptosis); format: cell-based
Source text: as §2

GES1 cells = experiment: Western blots of cleaved PARP in GES1 cells; format: cell-based; settings: GES1 whole cell lysates, indicated time points
Source text: as §2

OVCAR3 cells = experiment: Western blots of cleaved PARP in OVCAR3 cells; format: cell-based; settings: OVCAR3 whole cell lysates, indicated time points
Source text: as §2

[8] = tested on: GES1-ARID1A isogenic cell lines; experiment: metabolomics by 1D NMR; format: cell-based; settings: GES1-ARID1A WT and KO
Source text: (B) Heat map of important metabolites up/down regulated in GES1-ARID1A WT and KO with and without volasertib treatment, as measured by 1D NMR.
In addition, ARID1A loss causes a dramatic alteration in transcriptome leading to up or down regulation of many important biological pathways (FIG. 6).

cancer = settings: Phase II clinical trials; cited from earlier work

SMILES | sensitivity of cells with loss of ARID1A in cell survival screen (MCF10A ARID1A KO cells) | synthetic lethality, cell titre blue assay [1] | synthetic lethality, cell titre blue assay [2] | synthetic lethality, colony formation assay [3] | synthetic lethality, cell proliferation assays [4] | anti-tumor activity on xenografts (tumor volume, tumor area) [5] | anti-tumor activity on xenografts (tumor volume, tumor area) ([5]; 15 mg/kg) | mitochondrial depolarization (JC-1) [6] | apoptosis and cell killing ([7]; ARID1A KO cells) | apoptosis, Annexin-V positive cells ([7]; GES1 ARID1A-KO cells, post treatment) | cleaved PARP accumulation (GES1 cells) | cleaved PARP accumulation (OVCAR3 cells) | changes in metabolic intermediates / metabolomics [8] | clinical result as monotherapy (cancer)
COc1cc(C(=O)NC2CCN(C)CC2)c(F)cc1Nc1ncc2c(n1)N(C1CCCC1)CC(F)(F)C(=O)N2C [TAK960] | preferentially sensitivity |  |  |  |  |  |  |  |  |  |  |  |  | 
CC[C@@H]1C(=O)N(C)c2cnc(Nc3ccc(C(=O)N[C@H]4CC[C@H](N5CCN(CC6CC6)CC5)CC4)cc3OC)nc2N1C(C)C [Volasertib] |  | synthetic lethality between ARID1A loss and Volasertib | synthetic lethality between ARID1A loss and Volasertib | synthetic lethality between ARID1A loss and Volasertib | synthetic lethality between ARID1A loss and Volasertib | Anti-tumor activity | synthetically lethal relationship was also demonstrated | markedly increases mitochondrial depolarization; also recorded: increased depolarization post Volasertib treatment in a time dependent manner | selective cell killing in ARID1A KO cells | further increase post Volasertib treatment | increased accumulation of cleaved PARP | increased accumulation of cleaved PARP | profound changes in the metabolomics; also recorded: exacerbated upon volasertib treatment | encouraging results as monotherapy

Reference: patent US20230416836A1, “METHOD FOR PREDICTING RESPONSIVENESS TO PLK1 INHIBITION” (National University of Singapore, priority 2020, published 2023)
